Assay [1] deals with T1, Rezeptor (Glykoprotein IIb/IIIa) (Homo sapiens, UniProt P05106+P08514).
T1 construct: an intakten, gelfiltrierten Human-Thrombozyten; endogenous in cells; host or cells: intact, gel-filtered human platelets from donor blood, stimulated with ADP (10 µM)
Kind of assay: Inhibition of 125I-fibrinogen binding to its receptor on intact gel-filtered human platelets. The settings on record: inhibition of 125I-fibrinogen binding after stimulation with ADP (10µM), read-out: Ki (µM), ADP stimuliert. The source says: (§1) Geprüft werden die Verbindungen vor allem auf ihre hemmende Wirkung bei der Blutplättchenaggregation und der Anhaftung von Fibrinogen an Blutplättchen. Verwendet werden gefiltrierte Blutplättchen aus humanem Spenderblut, die mit ADP oder Thrombin aktiviert werden.
Geprüft wird die Hemmung der Bindung von Fibrinogen an seinen Rezeptor (Glykoprotein IIb/IIIa) an intakten, gelfiltrierten Human-Thrombozyten durch die erfindungsgemäßen Verbindungen. Angegeben ist der Ki Wert der Bindungshemmung von ^125I-Fibrinogen nach Stimulierung mit ADP (10µM).

Assay [2] deals with gelfiltrierter Human-Thrombozyten. Kind of assay: Inhibition of aggregation of gel-filtered human platelets after ADP or thrombin stimulation. The format is cell-based. The settings on record: platelet aggregation.
Excerpt: as §1
Als funktioneller Test wird die Hemmung der Aggregation gelfiltrierter Human-Thrombozyten nach ADP- oder Thrombin-Stimulierung durch die erfindungsgemäßen Verbindungen gemessen. Angegeben ist der IC50-Wert der Hemmung.

Where [3] appears, read: ADP-stimulated, read-out: IC50 (µM), ADP-stimuliert.
Setting [4] is: thrombin-stimulated, read-out: IC50 (µM), Thrombin-stimuliert.

Like-named read-outs stand apart in the source and are kept apart here.

T1 sequence (P08514 32-887 limits assumed): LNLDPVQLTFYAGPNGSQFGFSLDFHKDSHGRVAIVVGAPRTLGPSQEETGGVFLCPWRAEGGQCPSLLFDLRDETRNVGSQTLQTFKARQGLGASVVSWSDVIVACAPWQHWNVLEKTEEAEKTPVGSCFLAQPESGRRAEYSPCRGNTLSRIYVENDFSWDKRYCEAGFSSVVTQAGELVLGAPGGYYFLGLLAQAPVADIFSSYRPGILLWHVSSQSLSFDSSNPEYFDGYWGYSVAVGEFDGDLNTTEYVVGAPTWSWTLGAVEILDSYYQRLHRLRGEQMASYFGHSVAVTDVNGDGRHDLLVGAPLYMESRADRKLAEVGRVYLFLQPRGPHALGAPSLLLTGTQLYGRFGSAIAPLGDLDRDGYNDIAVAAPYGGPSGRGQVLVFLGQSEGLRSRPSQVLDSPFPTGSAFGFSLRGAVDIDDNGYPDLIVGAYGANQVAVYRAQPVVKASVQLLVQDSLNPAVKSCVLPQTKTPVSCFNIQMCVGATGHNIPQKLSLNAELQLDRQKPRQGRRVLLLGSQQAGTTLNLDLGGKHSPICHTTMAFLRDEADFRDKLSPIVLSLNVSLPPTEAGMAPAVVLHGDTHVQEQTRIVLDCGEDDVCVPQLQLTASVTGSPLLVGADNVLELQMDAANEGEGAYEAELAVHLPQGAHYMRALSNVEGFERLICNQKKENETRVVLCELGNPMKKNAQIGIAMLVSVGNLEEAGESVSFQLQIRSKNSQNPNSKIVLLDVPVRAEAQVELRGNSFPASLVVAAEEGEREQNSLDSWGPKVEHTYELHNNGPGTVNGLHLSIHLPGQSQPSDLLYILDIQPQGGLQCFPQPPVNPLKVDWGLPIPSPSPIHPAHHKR
T1 sequence (P08514 891-1039 partner limits assumed): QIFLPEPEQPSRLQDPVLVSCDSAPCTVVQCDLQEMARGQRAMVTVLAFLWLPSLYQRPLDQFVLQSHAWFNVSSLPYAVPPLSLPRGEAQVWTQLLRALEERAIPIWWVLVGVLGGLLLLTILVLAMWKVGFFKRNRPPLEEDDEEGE
T1 sequence (P05106 27-788): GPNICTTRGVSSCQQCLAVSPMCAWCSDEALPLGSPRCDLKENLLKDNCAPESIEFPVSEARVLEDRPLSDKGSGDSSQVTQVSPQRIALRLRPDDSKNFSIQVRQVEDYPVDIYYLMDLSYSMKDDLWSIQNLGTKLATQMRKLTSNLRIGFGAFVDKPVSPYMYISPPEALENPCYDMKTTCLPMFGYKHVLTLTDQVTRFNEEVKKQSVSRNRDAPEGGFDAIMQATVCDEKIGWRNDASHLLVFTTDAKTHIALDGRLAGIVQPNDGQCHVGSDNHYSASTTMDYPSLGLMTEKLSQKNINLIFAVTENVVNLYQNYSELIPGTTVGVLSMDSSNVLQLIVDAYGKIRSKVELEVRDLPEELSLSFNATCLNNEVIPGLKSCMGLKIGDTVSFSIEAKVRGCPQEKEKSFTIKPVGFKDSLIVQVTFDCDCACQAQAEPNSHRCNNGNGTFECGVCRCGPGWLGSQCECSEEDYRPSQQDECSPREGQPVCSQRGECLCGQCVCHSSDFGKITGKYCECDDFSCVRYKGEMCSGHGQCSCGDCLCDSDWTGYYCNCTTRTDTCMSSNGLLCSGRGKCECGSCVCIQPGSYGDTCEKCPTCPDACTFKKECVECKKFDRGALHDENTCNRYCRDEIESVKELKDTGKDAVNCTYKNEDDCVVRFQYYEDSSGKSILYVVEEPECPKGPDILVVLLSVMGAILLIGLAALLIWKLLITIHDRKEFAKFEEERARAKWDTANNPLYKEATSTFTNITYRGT

As a reminder, the Ki is a dissociation constant, usually derived from enzyme kinetics or from competition with a known ligand. In general, IC50 refers to the concentration that inhibits the measured activity by half. Take `N=C(N)c1ccc(CC2NC(=S)N(CC(=O)N[C@@H](CC(=O)O)C(=O)N[C@H](C(=O)O)c3ccccc3)C2=O)cc1` (stereo partly drawn) [Beispiel 2, (5-(S,R)-(4-Formamidino-benzyl)-4-oxo-2-thioxoimidazolidin-3-yl)-acetyl-L-aspartyl-L-phenylglycin]: in assay [1], the inhibition constant Ki was determined as 0.2 µM. The results for the 50% inhibitory concentration (IC50) in assay [2] (setting [3]) and in assay [2] (setting [4]) were 0.55 µM and 0.2 µM, respectively.
`N=C(N)NCCC[C@@H]1NC(=S)N(CC(=O)N[C@@H](CC(=O)O)C(=O)N[C@H](C(=O)O)c2ccccc2)C1=O`: in assay [1], the Ki came to 0.07 µM. The 50% inhibitory concentration (IC50) in assay [2] (setting [3]) turned out to be 0.5 µM; in assay [2] (setting [4]), 0.1 µM.

Values taken from patent EP0629211B1 (HOECHST AKTIENGESELLSCHAFT, priority 1992, dated 1993).
